Measured values from ChEMBL document CHEMBL4342418, “1,2,3-Triazole-containing hybrids as potential anticancer agents: Current developments, action mechanisms and structure-activity relationships” (Eur J Med Chem, 2019).
Converted amounts (≈) assume the structure as drawn.

Key:
[1] = test system: A549; assay: Antiproliferative activity against human A549 cells assessed as reduction in cell viability after 48 hrs by MTT assay; assay type: functional, cell-based; conditions: A549, 48 h
[2] = test system: HL-60; assay: Antiproliferative activity against human HL60 cells assessed as reduction in cell viability after 48 hrs by MTT assay; assay type: functional, cell-based; conditions: HL-60, 48 h
[3] = test system: SW480; assay: Antiproliferative activity against human SW480 cells assessed as reduction in cell viability after 48 hrs by MTT assay; assay type: functional, cell-based; conditions: SW480, 48 h
[4] = Antiproliferative activity against human SMCC7721 cells assessed as reduction in cell viability after 48 hrs by MTT assay; assay type: functional, cell-based
[5] = test system: A549; assay: Potency index, ratio of etoposide IC50 to test compound IC50 for antiproliferative activity against human A549 cells; assay type: functional
[6] = test system: MCF7; assay: Potency index, ratio of etoposide IC50 to test compound IC50 for antiproliferative activity against human MCF7 cells; assay type: functional
[7] = test system: SW480; assay: Potency index, ratio of etoposide IC50 to test compound IC50 for antiproliferative activity against human SW480 cells; assay type: functional
[8] = Potency index, ratio of etoposide IC50 to test compound IC50 for antiproliferative activity against human […] cells; assay type: functional
[9] = test system: A549; assay: Potency index, ratio of cisplatin IC50 to test compound IC50 for antiproliferative activity against human A549 cells; assay type: functional
[10] = test system: MCF7; assay: Potency index, ratio of cisplatin IC50 to test compound IC50 for antiproliferative activity against human MCF7 cells; assay type: functional
[11] = test system: SW480; assay: Potency index, ratio of cisplatin IC50 to test compound IC50 for antiproliferative activity against human SW480 cells; assay type: functional
[12] = Potency index, ratio of cisplatin IC50 to test compound IC50 for antiproliferative activity against human […] cells; assay type: functional
[13] = test system: MCF7; assay: Antiproliferative activity against human MCF7 cells assessed as reduction in cell viability after 48 hrs by MTT assay; assay type: functional, cell-based; conditions: MCF7, 48 h
[14] = test system: T47D; assay: Antiproliferative activity against human T47D cells assessed as reduction in cell viability after 48 hrs by MTT assay; assay type: functional, cell-based
[15] = test system: SNB-19; assay: Antiproliferative activity against human SNB19 cells assessed as reduction in cell viability after 48 hrs by MTT assay; assay type: functional, cell-based; conditions: SNB-19, 48 h
[16] = test system: MGC-803; assay: Antiproliferative activity against human MGC803 cells assessed as reduction in cell viability after 72 hrs by MTT assay; assay type: functional, cell-based; conditions: MGC-803, 72 h
[17] = test system: BGC-823; assay: Antiproliferative activity against human BGC823 cells assessed as reduction in cell viability after 72 hrs by MTT assay; assay type: functional, cell-based; conditions: BGC-823, 72 h
[18] = test system: SGC-7901; assay: Antiproliferative activity against human SGC7901 cells assessed as reduction in cell viability after 72 hrs by MTT assay; assay type: functional, cell-based; conditions: SGC-7901, 72 h
[19] = biological target: Tubulin; assay: Inhibition of tubulin polymerization (unknown origin); assay type: protein-complex assay, Homo sapiens
[20] = test system: MGC-803; assay: Antitumour activity against human MGC803 cells xenografted in BALB/c nude mice assessed as inhibition of tumour growth at 60 mg/kg, ig administered for 21 days relative to control; assay type: functional; conditions: Mus musculus, MGC-803, po, 504 h; read-out: TGI
[21] = test system: MCF7; assay: Antiproliferative activity against human MCF7 cells assessed as reduction in cell viability after 72 hrs by MTT assay; assay type: functional, cell-based; conditions: MCF7, 72 h
[22] = test system: A549; assay: Antiproliferative activity against human A549 cells assessed as reduction in cell viability after 72 hrs by MTT assay; assay type: functional, cell-based; conditions: A549, 72 h
[23] = test system: HepG2; assay: Antiproliferative activity against human HepG2 cells assessed as reduction in cell viability after 72 hrs by MTT assay; assay type: functional, cell-based; conditions: HepG2, 72 h
[24] = test system: A549; assay: Potency index, ratio of foretinib IC50 to test compound IC50 for antiproliferative activity against human A549 cells; assay type: functional
[25] = test system: HepG2; assay: Potency index, ratio of foretinib IC50 to test compound IC50 for antiproliferative activity against human HepG2 cells; assay type: functional
[26] = test system: MCF7; assay: Potency index, ratio of foretinib IC50 to test compound IC50 for antiproliferative activity against human MCF7 cells; assay type: functional
[27] = test system: A549/TR; assay: Antiproliferative activity against human A549/TR cells assessed as reduction in cell viability after 72 hrs by MTT assay; assay type: functional, cell-based
[28] = test system: A549/CDDP; assay: Antiproliferative activity against human A549/CDDP cells assessed as reduction in cell viability after 72 hrs by MTT assay; assay type: functional, cell-based
[29] = test system: HCT-116; assay: Antiproliferative activity against human HCT116 cells assessed as reduction in cell viability after 72 hrs by MTT assay; assay type: functional, cell-based; conditions: HCT-116, 72 h
[30] = test system: U-251; assay: Antiproliferative activity against human U251 cells assessed as reduction in cell viability after 72 hrs by MTT assay; assay type: functional, cell-based; conditions: U-251, 72 h
[31] = test system: A549; assay: Antitumour activity against human A549 cells xenografted in Kunming mice assessed as tumour growth inhibition at 5 mg/kg, iv bid administered and measured after week relative to control; assay type: functional; conditions: Mus musculus, read-out: TGI
[32] = test system: A549; assay: Antitumour activity against human A549 cells xenografted in Kunming mice assessed as tumour growth inhibition at 10 mg/kg, iv bid administered and measured after week hrs relative to control; assay type: functional; conditions: Mus musculus, read-out: TGI
[33] = test system: A549; assay: Antitumour activity against human A549 cells xenografted in Kunming mice assessed as tumour growth inhibition at 20 mg/kg, iv bid administered and measured after week relative to control; assay type: functional; conditions: Mus musculus, read-out: TGI
[34] = test system: A549; assay: Antitumour activity against human A549 cells xenografted in Kunming mice assessed as tumour growth inhibition at 50 mg/kg, po administered and measured after week relative to control; assay type: functional; conditions: Mus musculus, read-out: TGI

Compound: CCCC(=O)OC[C@H]1O[C@@H](OC(COCc2cn([C@H]3c4cc5c(cc4[C@@H](c4cc(OC)c(OC)c(OC)c4)[C@H]4C(=O)OC[C@@H]43)OCO5)nn2)COCc2cn([C@H]3c4cc5c(cc4[C@@H](c4cc(OC)c(OC)c(OC)c4)[C@H]4C(=O)OC[C@@H]43)OCO5)nn2)[C@H](OC(=O)CCC)[C@@H](OC(=O)CCC)[C@@H]1OC(=O)CCC (stereo partly specified)
- IC50 [1]: 430 to 3500 nM
- IC50 [2]: 430 to 3500 nM
- IC50 [3]: 430 to 3500 nM
- IC50 [4]: 430 to 3500 nM
- Ratio IC50 [5]: 2.8 - 21.3
- Ratio IC50 [6]: 2.8 - 21.3
- Ratio IC50 [7]: 2.8 - 21.3
- Ratio IC50 [8]: 2.8 - 21.3
- Ratio IC50 [9]: 2.8 - 21.3
- Ratio IC50 [10]: 2.8 - 21.3
- Ratio IC50 [11]: 2.8 - 21.3
- Ratio IC50 [12]: 2.8 - 21.3

Compound: C=C(C)[C@@H]1CC[C@]2(OC(=O)c3cn(Cc4ccc(F)cc4)nn3)CC[C@]3(C)[C@H](CC[C@@H]4[C@@]5(C)CC[C@H](OC(=O)c6cn(Cc7ccc(F)cc7)nn6)C(C)(C)[C@@H]5CC[C@]43C)[C@@H]12
- IC50 [13]: 50 to 90 nM
- IC50 [14]: 50 to 90 nM
- IC50 [15]: 50 to 90 nM

Compound: Cc1cc(=O)oc2cc(OCc3cn(-c4ccc(S(N)(=O)=O)cc4)nn3)ccc12
- IC50 [16]: 0.4 to 3.5 µg/mL (≈ 0.97 to 8.49 µM)
- IC50 [17]: 0.4 to 3.5 µg/mL (≈ 0.97 to 8.49 µM)
- IC50 [18]: 0.4 to 3.5 µg/mL (≈ 0.97 to 8.49 µM)
- IC50 [19]: 2400 nM
- inhibition in vivo at 60 mg/kg [20]: 64.2%

Compound: O=C(Nc1ccc(Oc2ncnc3ccsc23)cc1)c1nnn(-c2ccc(Cl)cc2)c1C(F)(F)F
- IC50 [21]: 500 to 1000 nM
- IC50 [22]: 500 to 1000 nM
- IC50 [23]: 500 to 1000 nM
- Ratio IC50 [24]: 3.6 - 5.2
- Ratio IC50 [25]: 3.6 - 5.2
- Ratio IC50 [26]: 3.6 - 5.2

Compound: CC(C)=CCC12OC(C)(C)C3CC(C=C4C(=O)c5c(OCc6cn(CCN7CCOCC7)nn6)cccc5OC431)C2=O (stereo unspecified)
- IC50 [22]: 310 to 3750 nM
- IC50 [27]: 310 to 3750 nM
- IC50 [28]: 310 to 3750 nM
- IC50 [23]: 310 to 3750 nM
- IC50 [29]: 310 to 3750 nM
- IC50 [30]: 310 to 3750 nM
- inhibition in vivo at 5 mg/kg [31]: 30.9%
- inhibition in vivo at 10 mg/kg [32]: 52.2%
- inhibition in vivo at 20 mg/kg [33]: 71.3%
- inhibition in vivo at 50 mg/kg [34]: 66.4%
